This is an account of results in patent US20030017146A1, “Arginine decomposing enzyme therapeutic composition” (priority 1996, published 2003).

Entries after “also recorded” stand apart in the source; their conditions may differ.

In data set [1] the test system is HeLa Cells (human cervical carcinoma). Kind of data set: Arginine deprivation of HeLa cells in vitro, survival and recovery (cloning studies). The class given is cell-based. The method, then:
Our in vitro work (D. N. Wheatly: Personal communication) with HeLa Cells (human cervical carcinoma) and early passages of human fibroblasts has established limits of survival and recovery after different items of arginine deprivation. […] By 96 hours of deprivation all HeLa cells were dead. In contrast, healthy fibroblasts could be recovered after even 10 days of deprivation.
Further work established that arginine concentration of 1 micro mole per liter had essentially the same effects as total deprivation. At 40 mircomolar, HeLa cycle was already disturbed, and killing of the cells started below 10 mircomolar. Thus our target “killing zone” for HeLa cells is 1 to 10 micromolar concentration of arginine during three to four days of deprivation.

Data set [2] concerns thrombocytes. Kind of data set: Iloprost infusion against loss of thrombocytes limiting duration of dialysis sessions. The format is in vivo, dogs. The note with it: dog, infusion at 0.5 to 1.0 ng/kg/hr, last two sessions. Here is the method:
No systemic problems were seen that would indicate serious threats caused by the lack of arginine. As discussed earlier, loss of thrombocytes was the main factor limiting duration of the sessions. In the last two sessions on the last dog we used yet another infusion pump to deliver iloprost (ILOMEDIN), Schering), a stable analog of prostacyclin (at 0.5 to 1.0 ng/kg/hr). […] By deployment of the approaches described earlier (oxygen supply) this problem will certainly be resolved.

For data set [3] the following is noted: cited from earlier work.
The nature of data set [4]: Continuous hemodialysis removal of arginine with insulin/glucose clamp in healthy dogs. The note with it: dog plasma, direct infusion of insulin and glucose with dialysis, blood flow 300 to 400 ml/min, single filter. The format is in vivo. The text has this: We have thus devised an approach combining our technique of extracorporeal blood treatment for removal of arginine (or any number of selected amino acids) with a pharmacological intervention employing an insulin/glucose clamp. As mentioned earlier, insulin is both an inhibitor of muscle protein breakdown (of both lysosomal and proteasomal pathways) and a promoter of protein synthesis. Since the net release of amino acids depends on both of these cellular activities, insulin is an excellent choice.
The upper two curves (dashed lines) are from the two sessions without insulin. Not shown are the concentrations of other amino acids, which could be maintained close to their pre-set levels (determined by their concentrations in the dialyzing fluid).
A detailed description of the experiment performed on one (the first) of the last three dogs is as follows. […]
Concentrations of amino acids in the blood plasma were measured on an amino acid analyzer (Pharmacia, Biochrom 20) using standard procedures of sample preparation. Using a short column and a truncated buffer program, several amino acids (phenylalanine, histidine, 3-methyl-histidine, tryptophan, lysine, and arginine) could be measured in about 30 minutes of analyzer running time. […]

The conditions of data set [5]: cited from earlier work. This is another data set of the same source.
The conditions of data set [6]: pH 7.4; cited from earlier work.

Take `N=C(N)NCCC[C@H](N)C(=O)O` [arginine]: in data set [1], the “arginine concentration at which the cell cycle was already disturbed” value is on record as 40 mircomolar, the “arginine concentration below which killing of the cells started” value was “below 10 mircomolar” and the “arginine concentration with essentially the same effects as total deprivation” value came to 1 micro mole per liter.

Take `CC#CCC(C)[C@H](O)/C=C/[C@@H]1[C@H]2C/C(=C/CCCC(=O)O)C[C@H]2C[C@H]1O` (stereo partly shown) [iloprost]: the “prolongation of the sessions” value in data set [2] is “slight prolongation only”.

In the case of `Cc1ncc(COP(=O)(O)O)c(C=O)c1O` [pyridoxal 5′-phosphate], the half life entry in data set [3] (in circulation) is “about 15 minutes”.

`Cc1ncc(CO)c(CO)c1O.Cl` [pyrodoxine hydrochloride, reference compound]: in data set [3] (human plasma, oral supplement of 100 mg/day, normal about 60 nM), the “plasma concentration of pyridoxal 5'-phosphate reached” value is recorded as 450 nM.

Regarding insulin, in data set [4], the arginine level reached was 1.5 µM.

B1: bADC: biosynthetic arginine decarboxylase of E. coli, tetramer of 296,000 molecular weight requiring pyridoxal 5'-phosphate and magnesium ion (protein, UniProt P21170 1-658, looked up)
Biosynthetic arginine …: MSDDMSMGLPSSAGEHGVLRSMQEVAMSSQEASKMLRTYNIAWWGNNYYDVNELGHISVCPDPDVPEARVDLAQLVKTREAQGQRLPALFCFPQILQHRLRSINAAFKRARESYGYNGDYFLVYPIKVNQHRRVIESLIHSGEPLGLEAGSKAELMAVLAHAGMTRSVIVCNGYKDREYIRLALIGEKMGHKVYLVIEKMSEIAIVLDEAERLNVVPRLGVRARLASQGSGKWQSSGGEKSKFGLAATQVLQLVETLREAGRLDSLQLLHFHLGSQMANIRDIATGVRESARFYVELHKLGVNIQCFDVGGGLGVDYEGTRSQSDCSVNYGLNEYANNIIWAIGDACEENGLPHPTVITESGRAVTAHHTVLVSNIIGVERNEYTVPTAPAEDAPRALQSMWETWQEMHEPGTRRSLREWLHDSQMDLHDIHIGYSSGIFSLQERAWAEQLYLSMCHEVQKQLDPQNRAHRPIIDELQERMADKMYVNFSLFQSMPDAWGIDQLFPVLPLEGLDQVPERRAVLLDITCDSDGAIDHYIDGDGIATTMPMPEYDPENPPMLGFFMVGAYQEILGNMHNLFGDTEAVDVFVFPDGSVEVELSDEGDTVADMLQYVQLDPKTLLTQFRDQVKKTDLDAELQQQFLEEFEAGLYGYTYLEDE
Consider B1, for which the “pH of optimal activity” value in data set [5] (absolute requirement for magnesium ion) is listed as about 8. Further, in data set [5] (cofactor), the “Michaelis constant for pyridoxal 5'-phosphate” value was 0.6 µM. In data set [5] (enzyme purified 1,000 fold), the specific activity is 16.4 units/mg. For the same molecule, the “magnesium saturation S0.5” value in data set [5] (sigmoidal magnesium saturation curve) is on record as 1.3 mM. Also, the “Michaelis constant for arginine” value in data set [5] (substrate) is 30 µM.

B2: dADC: inducible (biodegradative) arginine decarboxylase of E. coli, molecular weight 850,000, induced by low pH (protein, UniProt P28629 1-755, looked up)
Biodegradative arginine …: MKVLIVESEFLHQDTWVGNAVERLADALSQQNVTVIKSTSFDDGFAILSSNEAIDCLMFSYQMEHPDEHQNVRQLIGKLHERQQNVPVFLLGDREKALAAMDRDLLELVDEFAWILEDTADFIAGRAVAAMTRYRQQLLPPLFSALMKYSDIHEYSWAAPGHQGGVGFTKTPAGRFYHDYYGENLFRTDMGIERTSLGSLLDHTGAFGESEKYAARVFGADRSWSVVVGTSGSNRTIMQACMTDNDVVVVDRNCHKSIEQGLMLTGAKPVYMVPSRNRYGIIGPIYPQEMQPETLQKKISESPLTKDKAGQKPSYCVVTNCTYDGVCYNAKEAQDLLEKTSDRLHFDEAWYGYARFNPIYADHYAMRGEPGDHNGPTVFATHSTHKLLNALSQASYIHVREGRGAINFSRFNQAYMMHATTSPLYAICASNDVAVSMMDGNSGLSLTQEVIDEAVDFRQAMARLYKEFTADGSWFFKPWNKEVVTDPQTGKTYDFADAPTKLLTTVQDCWVMHPGESWHGFKDIPDNWSMLDPIKVSILAPGMGEDGELEETGVPAALVTAWLGRHGIVPTRTTDFQIMFLFSMGVTRGKWGTLVNTLCSFKRHYDANTPLAQVMPELVEQYPDTYANMGIHDLGDTMFAWLKENNPGARLNEAYSGLPVAEVTPREAYNAIVDNNVELVSIENLPGRIAANSVIPYPPGIPMLLSGENFGDKNSPQVSYLRSLQSWDHHFPGFEHETEGTEIIDGIYHVMCVKA
As to B2, in data set [6], the “catalytic activity at physiological pH” value is on record as “vanishes; also recorded: near total loss of activity”.
